Several values for one entry are separate records, joined by “and”; a condition that tells them apart may be missing. Equal values may be shown once. Read-outs that look alike come from different tables or passages of the source.
Tests used:
[1] = molecular target: F508del-CFTR (Homo sapiens, UniProt P13569, DEL508-508); test: HS-YFP assay on F508del-CFTR CFBE41o- cells, acute stimulation; format: cell-based; set-up: expressed in transfected cells; settings: acute stimulation in the presence of forskolin, Figure 4A
Chain of F508del-CFTR (P13569 with tags, fused parts or gaps DEL508-508): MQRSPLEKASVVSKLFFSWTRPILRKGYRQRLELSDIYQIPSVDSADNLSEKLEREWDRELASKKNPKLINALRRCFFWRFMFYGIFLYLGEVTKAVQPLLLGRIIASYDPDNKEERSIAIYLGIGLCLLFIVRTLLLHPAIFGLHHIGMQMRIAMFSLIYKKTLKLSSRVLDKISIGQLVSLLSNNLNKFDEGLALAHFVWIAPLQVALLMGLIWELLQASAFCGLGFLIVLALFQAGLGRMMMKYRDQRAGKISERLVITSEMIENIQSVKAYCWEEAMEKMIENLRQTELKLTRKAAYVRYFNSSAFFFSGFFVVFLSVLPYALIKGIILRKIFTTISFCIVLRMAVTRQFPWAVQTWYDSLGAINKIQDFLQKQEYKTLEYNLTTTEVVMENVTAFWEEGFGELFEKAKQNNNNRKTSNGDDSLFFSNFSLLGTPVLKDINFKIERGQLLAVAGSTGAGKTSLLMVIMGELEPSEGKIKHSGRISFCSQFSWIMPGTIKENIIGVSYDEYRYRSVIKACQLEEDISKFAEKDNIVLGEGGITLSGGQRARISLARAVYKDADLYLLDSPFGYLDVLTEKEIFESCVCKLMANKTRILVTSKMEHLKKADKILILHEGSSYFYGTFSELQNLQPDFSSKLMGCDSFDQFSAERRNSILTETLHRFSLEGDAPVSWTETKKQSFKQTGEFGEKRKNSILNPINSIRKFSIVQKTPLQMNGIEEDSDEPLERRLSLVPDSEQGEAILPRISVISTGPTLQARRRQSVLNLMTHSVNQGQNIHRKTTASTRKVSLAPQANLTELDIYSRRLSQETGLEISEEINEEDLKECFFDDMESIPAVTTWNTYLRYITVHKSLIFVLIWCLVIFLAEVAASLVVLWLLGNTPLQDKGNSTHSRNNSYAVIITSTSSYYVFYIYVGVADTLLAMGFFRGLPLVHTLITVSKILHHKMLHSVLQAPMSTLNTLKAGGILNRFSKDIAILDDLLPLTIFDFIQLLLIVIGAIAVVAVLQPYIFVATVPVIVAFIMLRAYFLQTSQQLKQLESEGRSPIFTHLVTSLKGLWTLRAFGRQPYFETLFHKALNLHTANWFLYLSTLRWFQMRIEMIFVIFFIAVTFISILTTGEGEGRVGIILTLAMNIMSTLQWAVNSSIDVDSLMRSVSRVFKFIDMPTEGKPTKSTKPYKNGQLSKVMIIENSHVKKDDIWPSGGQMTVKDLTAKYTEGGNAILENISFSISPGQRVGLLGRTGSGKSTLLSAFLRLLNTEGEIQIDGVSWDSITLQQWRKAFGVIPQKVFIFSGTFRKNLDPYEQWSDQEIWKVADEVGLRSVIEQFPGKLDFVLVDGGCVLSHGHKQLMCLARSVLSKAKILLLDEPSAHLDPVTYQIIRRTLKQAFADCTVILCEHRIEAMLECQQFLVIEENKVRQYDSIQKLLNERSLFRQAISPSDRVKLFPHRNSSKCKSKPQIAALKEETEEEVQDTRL
Procedure: The preliminary activity of these three hits was further evaluated in secondary screening assays. Although featuring the same common scaffold, in order to possibly discriminate the most interesting hit for further structural investigations, the compounds belonging to the family of tetrahydro-γ-carbolines were tested on more relevant cell models. First, the hits were tested on an immortalized bronchial epithelial cell line (CFBE41o-) stably expressing F508del-CFTR and HS-YFP. […]
Prior assay, cells were washed with phosphate-buffered saline (PBS) containing (in mM) 137 NaCl, 2.7 KCl, 8.1 Na2HPO4, 1.5 KH2PO4, 1 CaCl2, and 0.5 MgCl2. […] Cells were then transferred to microplate readers (FluoStar Optima; BMG Labtech, Offenburg, Germany) for CFTR activity determination. The plate readers were equipped with high-quality excitation (HQ500/20X: 500 ± 10 nm) and emission (HQ535/30M: 535 ± 15 nm) filters for YFP (Chroma Technology). The assay consisted of a continuous 14 s fluorescence reading, 2 s before and 12 s after injection of 165 μL of an iodide-containing solution (PBS with Cl^– replaced by I^–; final I^– concentration 100 mM). Data were normalized to the initial background-subtracted fluorescence. […]

[2] = Pharmacokinetics after i.v. and p.o. administration to rats; format: in vivo, Sprague–Dawley rats; settings: for half-life at 4 h: read-out: half-life (min) (elimination phase)
Procedure: Based on both its biological profile, showing a good efficacy in primary and secondary assays, and preliminary in vitro ADME properties, potentiator 39 was further evaluated in in vivo studies. […]
Male Sprague–Dawley rats, 2 month old and weighing 175–200 g (Charles River, Calco, Italy), were used. Animals were group-housed in ventilated cages and had free access to food and water. They were maintained under a 12 h light/dark cycle (lights on at 8:00 am) at a controlled temperature (21 ± 1 °C) and relative humidity (55 ± 10%). All experiments were carried out in accordance with the guidelines established by the European Communities Council Directive (Directive 2010/63/EU of September 22, 2010) and approved by the National Council on Animal Care of the Italian Ministry of Health. All efforts were made to minimize animal suffering and to use the minimal number of animals required to produce reliable results.
[…] PEG400/Tween 80/saline solution was used as a vehicle at 10/10/80% in volume, respectively. Three animals per dose were treated. Blood samples at 0, 15, 30, 60, 90, 120, 240, and 360 min after administration were collected for p.o. arm. Blood samples at 0, 5, 15, 30, 60, 90, 120, and 240 min after administration were collected for i.v. arm. Plasma was separated from blood by centrifugation for 15 min at 3500 rpm at 4 °C, collected in an Eppendorf tube, and frozen (−80 °C). Control animals treated with vehicle only were also included in the experimental protocol.
Plasma samples were centrifuged at 21,100g for 15 min at 4 °C, while homogenized lung samples were vigorously whirled. An aliquot of each sample was extracted (1:3) with cold CH3CN containing 200 nM of an appropriate internal standard being a close analogue of the parent compound. A calibration curve was prepared in both blank mouse plasma and naïve lung homogenate over a 1 nM to 10 μM range. Three quality controls were prepared by spiking the parent compound in both blank mouse plasma and naïve lung homogenate to 20, 200, and 2000 nM as final concentrations. The calibrators and quality controls were extracted (1:3) with the same extraction solution as the plasma and lung samples. The plasma and lung samples, the calibrators, and quality controls were centrifuged at 3270g for 15 min at 4 °C. The supernatants were further diluted (1:1) with H2O and analyzed by LC/MS–MS on a Waters ACQUITY UPLC/MS TQD system consisting of a TQD mass spectrometer equipped with an electrospray ionization interface and a photodiode array eλ detector. Electrospray ionization was applied in the positive mode. Compound-dependent parameters such as MRM transitions and collision energy were developed for the parent compound and the internal standard. The mobile phase was H2O + 0.1% HCOOH (A) and CH3CN + 0.1% HCOOH (B) at a flow rate of 0.5 mL/min. For plasma samples, the analyses were run on an ACQUITY UPLC BEH C18 (50 × 2.1 mm ID, particle size 1.7 μm) with a VanGuard BEH C18 precolumn (5 × 2.1 mm ID, particle size 1.7 μm) at 40 °C. A linear gradient was applied starting at 30% B with an initial hold for 0.2 min and then 30–100% B in 2 min. For lung samples, the analyses were run on an ACQUITY UPLC BEH C18 (100 × 2.1 mm ID, particle size 1.7 μm) with a VanGuard BEH C18 precolumn (5 × 2.1 mm ID, particle size 1.7 μm) at 40 °C. A linear gradient was applied starting at 30% B with an initial hold for 0.2 min and then 30–100% B in 6 min. All samples (plasma and lung samples, calibrators, and quality controls) were quantified by MRM peak area response factor in order to determine the levels of the parent compound in plasma and lung. The concentrations versus time data were plotted and the profiles were fitted using PK Solutions Excel Application (Summit Research Service, USA) in order to determine the pharmacokinetic parameters.

[3] = male, Sprague-Dawley, rat, iv, 3 mg/kg, plasma
[4] = male, Sprague-Dawley, rat, plasma, iv, 3 mg/kg
[5] = male, Sprague-Dawley, rat, plasma, po, 10 mg/kg
[6] = male, Sprague-Dawley, rat, po, 10 mg/kg, plasma

For COc1ccc2[nH]c3c(c2c1)CN(C(=O)c1cc(C(F)(F)F)[nH]n1)CC3 [Compound 3, (8-Methoxy-1,3,4,5-tetrahydropyrido[4,3-b]indol-2-yl)-[5-(trifluoromethyl)-1H-pyrazol-3-yl]methanone], the “dose-dependent activation of mutant CFTR” value [1] was “the most effective”.
In the case of Cc1ccc(F)c2[nH]c3c(c12)CN(C(=O)c1cc(C(F)(F)F)[nH]n1)[C@H](C)C3 [Compound 39, (R)-(6-Fluoro-3,9-dimethyl-1,3,4,5-tetrahydro-2H-pyrido[4,3-b]indol-2-yl)-(5-(trifluoromethyl)-1H-pyrazol-3-yl)methanone], the Cmax [2, 3] is reported as 2790 ng/mL, the Cmax at 4 h [2, 3] is reported as 7.3 µM and the AUC [2, 4] is reported as 2320 ng·h/mL and 6.1 µM·h. For the same molecule, the Tmax at 4 h [2, 4] was 5 min, the Vd at 4 h [2, 4] was 2.39 L/kg and the clearance at 4 h [2, 4] was 19 mL/min/kg. For the same molecule, the half-life at 4 h [2, 4] was 89 min, the bioavailability ([2]; male, Sprague-Dawley, rat, plasma, oral, p.o. 10 mg/kg versus i.v. 3 mg/kg, time interval 0–4 h) was about 30% and the AUC [2, 5] was 2330 ng·h/mL. The half-life at 4 h [2, 5] was 212 min, the concentration at 6 h ([2]; male, Sprague-Dawley, rat, plasma, po, 10 mg/kg, read-out: plasma level at 6 h postadministration) was > 450 ng/mL and ~1.2 µM and the Tmax ([2]; male, Sprague-Dawley, rat, plasma, po, 10 mg/kg, read-out: time of maximal plasma concentration) was 2 h. It also gave an AUC ([2]; male, Sprague-Dawley, rat, plasma, po, 10 mg/kg, time interval 0–4 h) of 6.1 µM·h, a bioavailability at 4 h ([2]; male, Sprague-Dawley, rat, plasma, po, p.o. 10 mg/kg versus i.v. 3 mg/kg, time interval 0–4 h) of 30% and a Cmax [2, 6] of 769 ng/mL. For the same molecule, the Cmax at 4 h [2, 6] was 2 µM and the “Tmax” value ([2]; p.o., 10 mg/kg) was 2 h.

— publication PMC8011931, “Identification, Structure–Activity Relationship, and Biological Characterization of 2,3,4,5-Tetrahydro-1H-pyrido[4,3-b]indoles as a Novel Class of CFTR Potentiators” (Journal of Medicinal Chemistry, 2020)
